Experimental data published in patent publication US12030904B2 (priority 2020, dated 2024).
Where two headings read alike, the source gives them in different places.

Assays:
[1] = test system: Recombinant Respiratory Syncytial virus strain A2 containing the firefly luciferase reporter (RSV-Fluc); assay: microbe, parasite or virus in culture; format: cell-based; details: human respiratory syncytial virus, NHBE
[2] = test system: SARS-CoV-2; assay: microbe, parasite or virus in culture; format: cell-based
[3] = A549 cytotoxicity analysis (CellTiter-Glo); format: cell-based; details: human, A549 cells
Procedure: The cytotoxicity of compounds was determined in A549 cells in the following manner. Compounds (40 nL) were spotted onto 384-well Grenier plates prior to seeding 5000 A549 cells/well in a volume of 40 μL culture medium. The plates were incubated at 37° C. for 48 hours with 5% CO2. On day 2, 40 μL of CellTiter-Glo (Promega) was added and mixed 5 times. Plates were read for luminescence on an Envision (PerkinElmer) and the CC50 (compound concentration for reducing 50% of luminescence signal as a measure of cell viability) were calculated using a nonlinear regression model (four parameters). Two experiments were performed with technical duplicates.

[4] = MT4 cytotoxicity (CC50); details: human, MT4 cells
[5] = 72 h, read-out: RSV-Fluc EC50 (NHBE), NHBE cells, three days, Table 1
[6] = Severe acute respiratory syndrome coronavirus 2, 48 h, read-out: SARS-CoV-2 EC50
[7] = 72 h, read-out: RSV-Fluc EC50 (NHBE), NHBE cells, three days, Table 2
[8] = Severe acute respiratory syndrome coronavirus 2, read-out: SARS EC50

SMILES	EC50 [1, 5] [nM]	EC50 [2, 6] [nM]	CC50 at 48 h ([3]; 48 hours, Table 1) [nM]	CC50 ([4]; MT4 CC50, Table 1a) [nM]	EC50 [2, 8] [nM]	also measured
CCCCCCCCCCCCCCCCCCOC[C@@H](COP(=O)(O)OC[C@H]1O[C@@](C#N)(c2ccc3c(N)ncnn23)[C@H](O)[C@@H]1O)OCc1ccccc1 [Example 18, ((2R,3S,4R,5R)-5-(4-aminopyrrolo[2,1-f][1,2,4]triazin-7-yl)-5-cyano-3,4-dihydroxytetrahydrofuran-2-yl)methyl ((S)-2-(benzyloxy)-3-(octadecyloxy)propyl) hydrogen phosphate]	110	320	> 50000			
CCCCCCCCCCCCCCCCCCOC[C@H](COP(=O)(O)OC[C@H]1O[C@@](C#N)(c2ccc3c(N)ncnn23)[C@H](O)[C@@H]1O)OCc1ccc(-c2ccccc2)cc1 [Example 2, (R)-2-([1,1′-biphenyl]-4-ylmethoxy)-3-(octadecyloxy)propyl (((2R,3S,4R,5R)-5-(4-aminopyrrolo[2,1-f][1,2,4]triazin-7-yl)-5-cyano-3,4-dihydroxytetrahydrofuran-2-yl)methyl) hydrogen phosphate]	350	430	> 50000	14700		
CCCCCCCCCCCCCCCCCCOC[C@H](COP(=O)(O)OC[C@H]1O[C@@](C#N)(c2ccc3c(N)ncnn23)[C@H](O)[C@@H]1O)OCc1ccc2ccccc2c1 [Example 4, ((2R,3S,4R,5R)-5-(4-aminopyrrolo[2,1-f][1,2,4]triazin-7-yl)-5-cyano-3,4-dihydroxytetrahydrofuran-2-yl)methyl ((R)-2-(naphthalen-2-ylmethoxy)-3-(octadecyloxy)propyl) hydrogen phosphate]	60	340	17000	4170		
CCCCCCCCCCCCCCCCCCCOC[C@H](COP(=O)(O)OC[C@H]1O[C@@](C#N)(c2ccc3c(N)ncnn23)[C@H](O)[C@@H]1O)OCc1ccccc1 [Example 7, ((2R,3S,4R,5R)-5-(4-aminopyrrolo[2,1-f][1,2,4]triazin-7-yl)-5-cyano-3,4-dihydroxytetrahydrofuran-2-yl)methyl ((R)-2-(benzyloxy)-3-(nonadecyloxy)propyl) hydrogen phosphate]	80	370	> 50000	13900		
CCCCCCCCCCCCCCCCCCOC[C@H](COP(=O)(O)OC[C@H]1O[C@@](C#N)(c2ccc3c(N)ncnn23)[C@H](O)[C@@H]1O)OCc1ccc(F)c(F)c1 [Example 14, ((2R,3S,4R,5R)-5-(4-aminopyrrolo[2,1-f][1,2,4]triazin-7-yl)-5-cyano-3,4-dihydroxytetrahydrofuran-2-yl)methyl ((R)-2-((3,4-difluorobenzyl)oxy)-3-(octadecyloxy)propyl) hydrogen phosphate]	90	320	13000	7190		
CCCCCCCCCCCCCCCCCCCOC[C@H](COP(=O)(O)OC[C@H]1O[C@@](C#N)(c2ccc3c(N)ncnn23)[C@H](O)[C@@H]1O)OCc1cc(F)cc(C#N)c1 [Example 70, ((2R,3S,4R,5R)-5-(4-aminopyrrolo[2,1-f][1,2,4]triazin-7-yl)-5-cyano-3,4-dihydroxytetrahydrofuran-2-yl)methyl ((R)-2-((3-cyano-5-fluorobenzyl)oxy)-3-(nonadecyloxy)propyl) hydrogen phosphate]						EC50 [1, 7]: 60 nM; EC50 ([1]; read-out: RSV EC50, Table 2a): 66 nM; CC50 at 48 h ([3]; Table 3): 1100 nM; CC50 ([4]; MT4 CC50, Table 2a): 854 nM
CCCCCCCCCCCCCCCCCCOC[C@H](COP(=O)(O)OC[C@H]1O[C@@](C#N)(c2ccc3c(N)ncnn23)[C@H](O)[C@@H]1O)OCC1CCCCC1 [Example 3, ((2R,3S,4R,5R)-5-(4-aminopyrrolo[2,1-f][1,2,4]triazin-7-yl)-5-cyano-3,4-dihydroxytetrahydrofuran-2-yl)methyl ((R)-2-(cyclohexylmethoxy)-3-(octadecyloxy)propyl) hydrogen phosphate]	120	340	19000	14000		
CCCCCCCCCCCCCCCCCCOC[C@H](COP(=O)(O)OC[C@H]1O[C@@](C#N)(c2ccc3c(N)ncnn23)[C@H](O)[C@@H]1OC(=O)C(C)C)OCc1ccccc1 [Example 12, (2R,3S,4R,5R)-5-(4-aminopyrrolo[2,1-f][1,2,4]triazin-7-yl)-2-(((((R)-2-(benzyloxy)-3-(octadecyloxy)propoxy)(hydroxy)phosphoryl)oxy)methyl)-5-cyano-4-hydroxytetrahydrofuran-3-yl isobutyrate]	260	3200	50000	50000		
CCCCCCCCCCCCCCCCCCOC[C@H](COP(=O)(O)OC[C@H]1O[C@@](C#N)(c2ccc3c(N)ncnn23)[C@H](O)[C@@H]1O)OCc1ccc(C#N)cc1 [Example 9, ((2R,3S,4R,5R)-5-(4-aminopyrrolo[2,1-f][1,2,4]triazin-7-yl)-5-cyano-3,4-dihydroxytetrahydrofuran-2-yl)methyl ((R)-2-((4-cyanobenzyl)oxy)-3-(octadecyloxy)propyl) hydrogen phosphate]	50	270	30000	1430		
CCCCCCCCCCCCCCCCCCOC[C@H](COP(=O)(O)OC[C@H]1O[C@@](C#N)(c2ccc3c(N)ncnn23)[C@H](O)[C@@H]1O)OCc1cc(F)cc(C#N)c1 [Example 16, [(2R,3S,4R,5R)-5-(4-aminopyrrolo[2,1-f][1,2,4]triazin-7-yl)-5-cyano-3,4-dihydroxy-tetrahydrofuran-2-yl]methyl [(2R)-2-[(3-cyano-5-fluoro-phenyl)methoxy]-3-octadecoxy-propyl] hydrogen phosphate]	60	220	18000	433		
CCCCCCCCCCCCCCCCCCOC[C@H](COP(=O)(O)OC[C@H]1O[C@@](C#N)(c2ccc3c(N)ncnn23)[C@H](OC(=O)C(C)C)[C@@H]1OC(=O)C(C)C)OCc1ccccc1 [Example 13, (2R,3R,4R,5R)-2-(4-aminopyrrolo[2,1-f][1,2,4]triazin-7-yl)-5-(((((R)-2-(benzyloxy)-3-(octadecyloxy)propoxy)(hydroxy)phosphoryl)oxy)methyl)-2-cyanotetrahydrofuran-3,4-diyl bis(2-methylpropanoate)]	2200	> 10000	15000	32800		
CCCCCCCCCCCCCCCCCCOC[C@H](COP(=O)(O)OC[C@H]1O[C@@](C#N)(c2ccc3c(N)ncnn23)[C@H](O)[C@@H]1O)OCc1ccc(C)cc1 [Example 40, ((2R,3S,4R,5R)-5-(4-aminopyrrolo[2,1-f][1,2,4]triazin-7-yl)-5-cyano-3,4-dihydroxytetrahydrofuran-2-yl)methyl ((R)-2-((4-methylbenzyl)oxy)-3-(octadecyloxy)propyl) hydrogen phosphate]					185	EC50 [1, 7]: 84 nM; EC50 ([1]; read-out: RSV EC50, Table 2a): 84 nM; CC50 ([4]; MT4 CC50, Table 2a): 2240 nM
CCCCCCCCCCCCCCCCCOC[C@H](COP(=O)(O)OC[C@H]1O[C@@](C#N)(c2ccc3c(N)ncnn23)[C@H](O)[C@@H]1O)OCc1cccc(C#N)c1 [Example 34, ((2R,3S,4R,5R)-5-(4-aminopyrrolo[2,1-f][1,2,4]triazin-7-yl)-5-cyano-3,4-dihydroxytetrahydrofuran-2-yl)methyl ((R)-2-((3-cyanobenzyl)oxy)-3-(heptadecyloxy)propyl) hydrogen phosphate]					582	EC50 ([1]; read-out: RSV EC50, Table 2a): 25 nM; CC50 ([4]; MT4 CC50, Table 2a): 550 nM
CCCCCCCCCCCCCCCCCCOCCCOP(=O)(O)OC[C@H]1O[C@@](C#N)(c2ccc3c(N)ncnn23)[C@H](O)[C@@H]1O [Example 59, ((2R,3S,4R,5R)-5-(4-Aminopyrrolo[2,1-f][1,2,4]triazin-7-yl)-5-cyano-3,4-dihydroxytetrahydrofuran-2-yl)methyl (3-(octadecyloxy)propyl) hydrogen phosphate]					10000	EC50 [1, 7]: 170 nM; EC50 ([1]; read-out: RSV EC50, Table 2a): 171 nM; CC50 ([4]; MT4 CC50, Table 2a): 19600 nM
CCCCCCCCCCCCCCCCCOCCCCOP(=O)(O)OC[C@H]1O[C@@](C#N)(c2ccc3c(N)ncnn23)[C@H](O)[C@@H]1O [Example 121, [(2R,3S,4R,5R)-5-(4-Aminopyrrolo[2,1-f][1,2,4]triazin-7-yl)-5-cyano-3,4-dihydroxy-tetrahydrofuran-2-yl]methyl 4-heptadecoxybutyl hydrogen phosphate]					8900	EC50 ([1]; read-out: RSV EC50, Table 4): 262 nM; CC50 ([4]; MT4 CC50, Table 4): 10400 nM
CCCCCCCCCCCCCCOC[C@H](COP(=O)(O)OC[C@H]1O[C@@](C#N)(c2ccc3c(N)ncnn23)[C@H](O)[C@@H]1O)OCc1ccc(C#N)cc1F [Example 101, [(2R,3S,4R,5R)-5-(4-aminopyrrolo[2,1-f][1,2,4]triazin-7-yl)-5-cyano-3,4-dihydroxy-tetrahydrofuran-2-yl]methyl [(2R)-2-[(4-cyano-2-fluoro-phenyl)methoxy]-3-tetradecoxy-propyl] hydrogen phosphate]					130	EC50 ([1]; read-out: RSV EC50, Table 4): 20 nM; CC50 ([4]; MT4 CC50, Table 4): 5110 nM
